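Where inhibition never reached the appropriate level, the endpoint shown equals the highest concentration tested. Otherwise, values were interpolated linearly from a five-concentration, 48-hour dose response in 96-well plates. Abbreviation: GI50, concentration required for 50% inhibition of growth. TGI marks complete inhibition of growth.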
Experiments:
Experiment in all cases: NCI tumour cell line growth inhibition, 48 h
HS 578T breast = system: HS 578T breast
BT-549 breast = system: BT-549 breast
DU-145 prostate = system: DU-145 prostate
PC-3 prostate = system: PC-3 prostate
MDA-MB-231 breast = system: MDA-MB-231 breast
T-47D breast = system: T-47D breast
MDA-MB-435 = system: MDA-MB-435

COc1ccc(C2SC(C)C(=O)N2NC(=O)C(O)c2ccccc2)cc1OC (stereo not drawn)
GI50 (HS 578T breast): > 100 µM
TGI (HS 578T breast): > 100 µM
GI50 (BT-549 breast): > 100 µM
TGI (BT-549 breast): > 100 µM
GI50 (DU-145 prostate): > 100 µM
TGI (DU-145 prostate): > 100 µM
GI50 (PC-3 prostate): > 100 µM
TGI (PC-3 prostate): > 100 µM
GI50 (MDA-MB-231 breast): > 100 µM
TGI (MDA-MB-231 breast): > 100 µM
GI50 (T-47D breast): > 100 µM
TGI (T-47D breast): > 100 µM
GI50 (MDA-MB-435): > 100 µM
TGI (MDA-MB-435): > 100 µM

O=C(Nc1cccc(NC(=O)Nc2cc(C(F)(F)F)ccc2Cl)c1)Nc1cc(C(F)(F)F)ccc1Cl
GI50 (HS 578T breast): 2.64 µM
TGI (HS 578T breast): 8.81 µM
GI50 (BT-549 breast): 5.55 µM
TGI (BT-549 breast): 38.4 µM
GI50 (DU-145 prostate): 4.11 µM
TGI (DU-145 prostate): 17.8 µM
GI50 (PC-3 prostate): 1.4 µM
TGI (PC-3 prostate): 8.23 µM
GI50 (MDA-MB-231 breast): 2.3 µM
TGI (MDA-MB-231 breast): 22 µM
GI50 (T-47D breast): 0.407 µM
TGI (T-47D breast): 11.4 µM
GI50 (MDA-MB-435): 5.56 µM
TGI (MDA-MB-435): > 100 µM

COc1ccc(OC)c(-c2c(C#N)c(N)nc(N3CCOCC3)c2C#N)c1
GI50 (HS 578T breast): 87.4 µM
TGI (HS 578T breast): > 100 µM
GI50 (BT-549 breast): > 100 µM
TGI (BT-549 breast): > 100 µM
GI50 (DU-145 prostate): > 100 µM
TGI (DU-145 prostate): > 100 µM
GI50 (PC-3 prostate): 95.4 µM
TGI (PC-3 prostate): > 100 µM
GI50 (MDA-MB-231 breast): 40.3 µM
TGI (MDA-MB-231 breast): > 100 µM
GI50 (T-47D breast): 45.1 µM
TGI (T-47D breast): > 100 µM
GI50 (MDA-MB-435): > 100 µM
TGI (MDA-MB-435): > 100 µM

O=c1nc2oc3ccc4ccccc4c3cc-2s1
GI50 (HS 578T breast): 0.528 µM
TGI (HS 578T breast): > 61.8 µM
GI50 (BT-549 breast): 4.35 µM
TGI (BT-549 breast): > 100 µM
GI50 (DU-145 prostate): 11.5 µM
TGI (DU-145 prostate): > 100 µM
GI50 (PC-3 prostate): 3.16 µM
TGI (PC-3 prostate): > 100 µM
GI50 (MDA-MB-231 breast): 12.4 µM
TGI (MDA-MB-231 breast): > 100 µM
GI50 (T-47D breast): 3.51 µM
TGI (T-47D breast): > 100 µM
GI50 (MDA-MB-435): 0.259 µM
TGI (MDA-MB-435): 0.783 µM

C=C1C(=O)OC2/C=C(/C)C(OC(C)=O)CC(O)/C(C)=C\C(OC(=O)/C(C)=C\C)C12 (stereo not drawn)
TGI (HS 578T breast): > 100 µM
TGI (BT-549 breast): > 100 µM
TGI (DU-145 prostate): > 100 µM
TGI (PC-3 prostate): > 100 µM
TGI (MDA-MB-231 breast): > 100 µM
TGI (T-47D breast): > 100 µM
TGI (MDA-MB-435): > 100 µM

CS[C@]12C(=O)C[C@@]3(C)[C@@H](CC[C@]3(O)C(=O)CO)[C@@H]1CCC1=CC(=O)CC[C@@]12C
TGI (HS 578T breast): > 100 µM
TGI (BT-549 breast): > 100 µM
TGI (DU-145 prostate): > 100 µM
TGI (PC-3 prostate): > 100 µM
TGI (MDA-MB-231 breast): > 100 µM
TGI (T-47D breast): > 100 µM
TGI (MDA-MB-435): > 100 µM

C[C@]12CC[C@H]3[C@@H](CC[C@]4(O)C[C@@H](O)CC[C@]34/C=N/O)[C@@]1(O)CC[C@@H]2C1=COC(=O)C1
TGI (HS 578T breast): > 100 µM
TGI (BT-549 breast): 0.245 µM
TGI (DU-145 prostate): 0.111 µM
TGI (PC-3 prostate): 0.532 µM
TGI (T-47D breast): 0.975 µM
TGI (MDA-MB-435): 0.623 µM

O=C1c2ccccc2-c2c1c1ccccc1c(=O)n2CCN1CCOCC1
GI50 (HS 578T breast): > 100 µM
TGI (HS 578T breast): > 100 µM
GI50 (BT-549 breast): > 100 µM
TGI (BT-549 breast): > 100 µM
GI50 (DU-145 prostate): > 100 µM
TGI (DU-145 prostate): > 100 µM
GI50 (PC-3 prostate): > 100 µM
TGI (PC-3 prostate): > 100 µM
GI50 (MDA-MB-231 breast): > 100 µM
TGI (MDA-MB-231 breast): > 100 µM
GI50 (T-47D breast): > 100 µM
TGI (T-47D breast): > 100 µM
GI50 (MDA-MB-435): > 100 µM
TGI (MDA-MB-435): > 100 µM

C/C=C(\C)C(=O)O[C@H]1C=CC(=O)O[C@@H]1CC[C@H](O)[C@H](C)O
GI50 (HS 578T breast): 34.8 µM
TGI (HS 578T breast): 94.2 µM
GI50 (BT-549 breast): 27.3 µM
TGI (BT-549 breast): 71.2 µM
GI50 (DU-145 prostate): 34 µM
TGI (DU-145 prostate): > 100 µM
GI50 (PC-3 prostate): > 86.2 µM
TGI (PC-3 prostate): > 100 µM
GI50 (MDA-MB-231 breast): 52.2 µM
TGI (MDA-MB-231 breast): > 100 µM
GI50 (T-47D breast): 38.6 µM
TGI (T-47D breast): > 87.1 µM
GI50 (MDA-MB-435): 34.6 µM
TGI (MDA-MB-435): > 100 µM

COc1ccc2c(c1)C(=O)c1c-2c(N(C)C)nc2ccccc12
GI50 (HS 578T breast): > 100 µM
TGI (HS 578T breast): > 100 µM
GI50 (BT-549 breast): > 100 µM
TGI (BT-549 breast): > 100 µM
GI50 (DU-145 prostate): > 100 µM
TGI (DU-145 prostate): > 100 µM
GI50 (PC-3 prostate): > 100 µM
TGI (PC-3 prostate): > 100 µM
GI50 (MDA-MB-231 breast): 77 µM
TGI (MDA-MB-231 breast): > 100 µM
GI50 (T-47D breast): > 100 µM
TGI (T-47D breast): > 100 µM

CCSCCCN(CCCSCC)CCCSCC
TGI (BT-549 breast): > 100 µM
TGI (DU-145 prostate): > 100 µM
TGI (PC-3 prostate): > 100 µM
TGI (MDA-MB-231 breast): > 100 µM
TGI (T-47D breast): > 100 µM
TGI (MDA-MB-435): > 100 µM

NC(=O)c1c(NC(=O)c2ccc3c(c2)OCO3)sc2c1CCC(=O)C2
GI50 (BT-549 breast): 0.373 µM
TGI (BT-549 breast): 5.57 µM
GI50 (DU-145 prostate): 4.5 µM
TGI (DU-145 prostate): > 100 µM
GI50 (PC-3 prostate): 0.313 µM
TGI (PC-3 prostate): > 100 µM
GI50 (MDA-MB-231 breast): 2.44 µM
TGI (MDA-MB-231 breast): 6.89 µM
GI50 (T-47D breast): 0.592 µM
TGI (T-47D breast): 3.81 µM
GI50 (MDA-MB-435): 3.16 µM
TGI (MDA-MB-435): > 100 µM

Cc1ccc(CNc2c3ccccc3nc3cc(NC(=O)CCN4CCCC4)ccc23)cc1
GI50 (BT-549 breast): 1.47 µM
TGI (BT-549 breast): 2.88 µM
GI50 (DU-145 prostate): 0.516 µM
TGI (DU-145 prostate): 1.66 µM
GI50 (PC-3 prostate): 0.515 µM
TGI (PC-3 prostate): 1.83 µM
GI50 (MDA-MB-231 breast): 0.602 µM
TGI (MDA-MB-231 breast): 1.98 µM
GI50 (T-47D breast): 0.751 µM
TGI (T-47D breast): 3.02 µM
GI50 (MDA-MB-435): 1.33 µM
TGI (MDA-MB-435): 2.62 µM

CCCOC(=O)N1CCN(/[N+]([O-])=N/Oc2ccc([N+](=O)[O-])cc2[N+](=O)[O-])CC1
GI50 (HS 578T breast): 4.95 µM
TGI (HS 578T breast): 50.9 µM
GI50 (BT-549 breast): 3.46 µM
TGI (BT-549 breast): 11.7 µM
GI50 (DU-145 prostate): 1.81 µM
TGI (DU-145 prostate): 3.53 µM
GI50 (PC-3 prostate): 4.14 µM
TGI (PC-3 prostate): 15.1 µM
GI50 (MDA-MB-231 breast): 2.29 µM
TGI (MDA-MB-231 breast): 4.83 µM
GI50 (MDA-MB-435): 0.366 µM
TGI (MDA-MB-435): 12.2 µM

COc1cc(C(=O)NC2CCN(C)CC2)c(F)cc1Nc1ncc2c(n1)N(C1CCCC1)CC(F)(F)C(=O)N2C
GI50 (HS 578T breast): < 0.0342 µM
TGI (HS 578T breast): 10.4 µM
GI50 (BT-549 breast): 1.87 µM
TGI (BT-549 breast): 20 µM
GI50 (DU-145 prostate): 0.0179 µM
TGI (DU-145 prostate): 11.2 µM
GI50 (PC-3 prostate): < 0.0201 µM
TGI (PC-3 prostate): 18.3 µM
GI50 (T-47D breast): < 0.0315 µM
TGI (T-47D breast): 13 µM

— PubChem BioAssay (NCI)
